Ends that are not written are not given here.
Experiments:
[1] = Electronic tongue analysis (Taste-Sensing System SA 402B); set-up: unit not given here; conditions: reference solution 30 mM KCl + 0.3 mM tartaric acid as baseline, first measurement excluded; for Umami: sensor AAE; for Umami / Bitter / Sweet: detection threshold 0, room temperature; for Umami / Bitter / Sour / Salty: four replicates; for Sour: detection threshold -13, room temperature; for Salty: detection threshold -6, room temperature; for Sweet: measured five times
Experimental: Taste characteristics were analyzed using the electronic tongue system E-tongue (Taste-Sensing System SA 402B, Intelligent Sensor Technology Co. Ltd., Japan). The system was equipped with five specific sensor probes for detecting sourness (CA0), saltiness (CT0), bitterness (C00), sweetness (GL1), and umami (AAE). Samples were tested at concentrations of 0.1 mg/mL and 1.0 mg/mL. Prior to experiments, sensors were activated by immersion in a reference solution (30 mM KCl and 0.3 mM tartaric acid) for 24 h. A 30 min self-diagnostic procedure was performed before each measurement to ensure data accuracy. The reference solution served both as a cleaning solution and standard solution for taste signal calibration. According to the manufacturer’s instructions, using the reference solution as baseline, the detection thresholds were set at −13 for sourness, −6 for saltiness, and 0 for other taste modalities. Two cleaning solutions were employed for electrode maintenance: (1) 30% ethanol solution containing 100 mM HCl for negative charge reference electrodes, and (2) 30% ethanol solution containing 100 mM KCl and 10 mM KOH for positive charge reference electrodes. All taste measurements were performed at room temperature with four replicates, except for sweetness which was measured five times. The first measurement data were excluded from analysis.

[2] = system: human pancreatic ductal epithelial cells (HPNE)
[3] = system: human embryonic kidney cells (HEK293T)
Experimental: (§1) The cytotoxicity of 73 synthetic peptides was evaluated using four human cell lines: human pancreatic ductal epithelial cells (HPNE), human embryonic kidney cells (HEK293T), human umbilical vein endothelial cells (HUVEC), and human bronchial epithelial cells (BEAS-2B). When cell density reached 70% confluence, the complete culture medium was replaced with serum-free maintenance medium, and peptides were added at a final concentration of 100 μM for 36 h. Control groups received only serum-free maintenance medium without peptides. Cell proliferation was assessed using the CCK-8 assay kit (Solarbio, CA1210) according to the manufacturer’s instructions.

[4] = system: human umbilical vein endothelial cells (HUVEC)
[5] = system: human bronchial epithelial cells (BEAS-2B)
Experimental: as §1

| Substance | Umami ([1]; peptide 0.1 mg/mL) | Umami ([1]; peptide 1 mg/mL) | Bitter ([1]; sensor C00, peptide 0.1 mg/mL) | Bitter ([1]; sensor C00, peptide 1 mg/mL) | Sour ([1]; sensor CA0, peptide 0.1 mg/mL) | Sour ([1]; sensor CA0, peptide 1 mg/mL) | Salty ([1]; sensor CT0, peptide 0.1 mg/mL) | Salty ([1]; sensor CT0, peptide 1 mg/mL) | Sweet ([1]; sensor GL1, peptide 0.1 mg/mL) | Sweet ([1]; sensor GL1, peptide 1 mg/mL) | Average cell viability, HPNE [2] | Cell viability, HPNE, Data1 [2] | Cell viability, HPNE, Data2 [2] | Cell viability, HPNE, Data3 [2] | Average cell viability, HEK293T [3] | Cell viability, HEK293T, Data1 [3] | Cell viability, HEK293T, Data2 [3] | Cell viability, HEK293T, Data3 [3] | Average cell viability, HUVEC [4] | Cell viability, HUVEC, Data1 [4] | other results |
| --- | --- | --- | --- | --- | --- | --- | --- | --- | --- | --- | --- | --- | --- | --- | --- | --- | --- | --- | --- | --- | --- |
| EVGMQE [TaPep56] | 2.28 | -4.04 | 7.18 | 3.33 | -4.96 | 9.59 | -21.19 | 6.57 | 7.84 | -7.49 | 104.53 | 109.42 | 91.95 | 112.21 | 101.26 | 104.86 | 101.55 | 97.38 | 106.36 | 96.04 | Cell viability, HUVEC, Data2 [4]: 108.89; Cell viability, HUVEC, Data3 [4]: 114.16; Average cell viability, BEAS-2B [5]: 108.94; Cell viability, BEAS-2B, Data1 [5]: 97.91; Cell viability, BEAS-2B, Data2 [5]: 109.67; Cell viability, BEAS-2B, Data3 [5]: 119.24 |
| DQKVLA [TaPep3] | 2.16 | -4.90 | 7.84 | 2.95 | -4.64 | 12.21 | -20.13 | 13.20 | 7.95 | -6.65 | 93.24 | 97.04 | 98.74 | 83.96 | 94.20 | 93.79 | 84.04 | 104.76 | 98.83 | 114.40 | Cell viability, HUVEC, Data2 [4]: 89.41; Cell viability, HUVEC, Data3 [4]: 92.68; Average cell viability, BEAS-2B [5]: 108.77; Cell viability, BEAS-2B, Data1 [5]: 109.77; Cell viability, BEAS-2B, Data2 [5]: 102.49; Cell viability, BEAS-2B, Data3 [5]: 114.06 |
| IFGDD [TaPep57] | 1.71 | -5.02 | 7.29 | 3.08 | -3.54 | 12.57 | -21.64 | 9.94 | 6.75 | -7.93 | 103.13 | 83.76 | 112.81 | 112.81 | 99.72 | 100.22 | 96.06 | 102.87 | 100.24 | 106.57 | Cell viability, HUVEC, Data2 [4]: 103.38; Cell viability, HUVEC, Data3 [4]: 90.77; Average cell viability, BEAS-2B [5]: 100.86; Cell viability, BEAS-2B, Data1 [5]: 99.70; Cell viability, BEAS-2B, Data2 [5]: 103.89; Cell viability, BEAS-2B, Data3 [5]: 99.00 |
| AWDGQ [TaPep73] | 0.77 | -5.41 | 7.64 | 4.33 | -1.22 | 13.38 | -19.69 | 8.78 | 4.76 | -5.09 | 107.55 | 109.82 | 117.40 | 95.44 | 106.97 | 104.20 | 108.17 | 108.55 | 105.51 | 111.28 | Cell viability, HUVEC, Data2 [4]: 115.27; Cell viability, HUVEC, Data3 [4]: 89.97; Average cell viability, BEAS-2B [5]: 106.58; Cell viability, BEAS-2B, Data1 [5]: 95.61; Cell viability, BEAS-2B, Data2 [5]: 116.85; Cell viability, BEAS-2B, Data3 [5]: 107.28 |
| KGGEV [TaPep68] | 0.75 | -4.79 | 7.39 | 3.94 | -1.26 | 12.33 | -15.75 | 12.33 | 3.06 | -4.04 | 94.11 | 97.24 | 99.23 | 85.86 | 100.03 | 100.79 | 94.92 | 104.38 | 103.75 | 103.54 | Cell viability, HUVEC, Data2 [4]: 113.44; Cell viability, HUVEC, Data3 [4]: 94.28; Average cell viability, BEAS-2B [5]: 104.35; Cell viability, BEAS-2B, Data1 [5]: 106.68; Cell viability, BEAS-2B, Data2 [5]: 113.46; Cell viability, BEAS-2B, Data3 [5]: 92.92 |
